This is an account of results in the supplement of paper PMC10307832.

Common to all, as to assay: relative viability (nuclei count vs DMSO), 5 days (fraction); higher = more cells survive
Compound in the experiment “Cediranib + Linsitinib”: COc1cc2c(Oc3ccc4[nH]c(C)cc4c3F)ncnc2cc1OCCCN1CCCC1 [Cediranib] + C[C@]1(O)C[C@@H](c2nc(-c3ccc4ccc(-c5ccccc5)nc4c3)c3c(N)nccn32)C1 [Linsitinib] (partner 1 µM)
In short, it runs like this: (§1)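 Relative viability equals treated-well nuclei counts divided by vehicle-well nuclei counts. Counts came from 4× images of lung cancer cell lines grown in 1536-well plates for 5 days after pin-tool dosing on the day after seeding. Dosing used one drug alone or a fixed anchor-drug dose plus five library-drug doses (not always all listed) in √10 steps, and values are medians of duplicate plates.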

Compound in the experiment “Decitabine + Navitoclax”: Nc1ncn([C@H]2C[C@H](O)[C@@H](CO)O2)c(=O)n1 [Decitabine] + CC1(C)CCC(c2ccc(Cl)cc2)=C(CN2CCN(c3ccc(C(=O)NS(=O)(=O)c4ccc(N[C@H](CCN5CCOCC5)CSc5ccccc5)c(S(=O)(=O)C(F)(F)F)c4)cc3)CC2)C1 [Navitoclax] (partner 0.5 µM)
In short, it runs like this: as §1

Compound in experiment [1]: O=C(C[C@H]1NCCC[C@@H]1O)Cn1cnc2cc(Br)c(Cl)cc2c1=O (racemic) [Halofuginone] + CC(=O)Nc1cccc(-n2c(=O)n(C3CC3)c(=O)c3c(Nc4ccc(I)cc4F)n(C)c(=O)c(C)c32)c1 [Trametinib] (partner 0.02 µM)
In short, it runs like this:
as §1

Compound in experiment [2]: O=C(C[C@H]1NCCC[C@@H]1O)Cn1cnc2cc(Br)c(Cl)cc2c1=O (racemic) [Halofuginone] + Cc1cc(Nc2cc(N3CCN(C)CC3)nc(Sc3ccc(NC(=O)C4CC4)cc3)n2)n[nH]1 [Tozasertib] (partner 0.1 µM)
In short, it runs like this:
as §1

For the cell line UMC-11, the relative viability with Cediranib + Linsitinib (first compound 0.04 µM) is 1.06; in the experiment with Cediranib + Linsitinib (first compound 0.1265 µM), 1.02; in the experiment with Cediranib + Linsitinib (first compound 0.4 µM), 0.955; in the experiment with Cediranib + Linsitinib (first compound 1.265 µM) it was 0.957; in the experiment with Cediranib + Linsitinib (first compound 4 µM), 0.934; in the experiment with Decitabine + Navitoclax (first compound 0.04 µM), 0.316. Moreover, the relative viability with Decitabine + Navitoclax (first compound 0.1265 µM) amounted to 0.29; with Decitabine + Navitoclax (first compound 0.4 µM), 0.215; with Decitabine + Navitoclax (first compound 1.265 µM), 0.162; in the experiment with Decitabine + Navitoclax (first compound 4 µM), 0.145; in experiment [1] (first compound 0.001 µM), 0.8; in experiment [1] (first compound 0.003162 µM) it was 0.791. Also, the relative viability was determined as 0.782 in experiment [1] (first compound 0.01 µM); 0.603 in experiment [1] (first compound 0.03162 µM); 0.456 in experiment [1] (first compound 0.1 µM); 0.219 in experiment [2] (first compound 0.001 µM); 0.196 in experiment [2] (first compound 0.003162 µM); 0.189 in experiment [2] (first compound 0.01 µM). Also, the relative viability worked out at 0.205 in experiment [2] (first compound 0.03162 µM) and 0.209 in experiment [2] (first compound 0.1 µM).
